pIC50: −log10 of the molar value.
Legend:
MIA-PA-CA-2 cells = assay: Anti-proliferation experiment of MIA-PA-CA-2 cells (CellTiter-Glo); format: cell-based; conditions: Homo sapiens, MIA PaCa-2, 72 h, 3 days
Procedure: DMEM culture medium, fetal bovine serum purchased from Biosera, and horse serum purchased from Gibco. CellTiter-Glo (chemiluminescence detection reagent for cell viability) reagent purchased from Promega. MIA-PA-CA-2 cell line purchased from Nanjing CoBioer Biotechnology Co., Ltd. EnVision multi-label analyzer (PerkinElmer).
MIA-PA-CA-2 cells were seeded in a white 96-well plate with 80 μL of cell suspension per well, which contained 1000 MIA-PA-CA-2 cells. The cell plate was incubated overnight in a carbon dioxide incubator.
The compounds to be tested were diluted 5-fold with a row gun to the eighth concentration, that is, from 2 mM to 26 nM, and a double-duplication experiment was set up. 78 μL of culture medium was added to a middle plate, and then 2 μL of gradient diluted compound per well was transferred to the middle plate according to the corresponding position. After being thoroughly mixed, 20 μL per well was transferred to the cell plate. The concentration range of the compound transferred to the cell plate was 10 μM to 0.13 nM. The cell plate was placed in the carbon dioxide incubator for 3 days. Another cell plate was prepared, and the signal value was read as the maximum value (Max value in the equation below) on the day of administration to participate in data analysis. 25 μL of cell viability chemiluminescence detection reagent was added to each well of the cell plate, and incubated at room temperature for 10 minutes to stabilize the luminescence signal. A multi-label analyzer was used for reading.
Using the equation (Sample−Min)/(Max−Min)*100% to convert the raw data into inhibition rate, and the value of IC50 might be obtained by curve fitting with four parameters (obtained by “log (inhibitor)/response—Variable scope” mode in GraphPad Prism software). Table 2 provides the inhibitory activity of the compounds of the present disclosure on the proliferation of MIA-PA-CA-2 cells.

[1] = system: human colon cancer CO-04-0070 subcutaneous xenograft tumor; assay: In vivo pharmacodynamic study on human colon cancer CO-04-0070 subcutaneous xenograft tumor model; set-up: species or system BALB/c nude mouse; conditions: for Tumor volume (Day 0): Day 0 (at grouping); for Tumor volume (Day 0) / Tumor volume (Day 20) / Tumor weight (Day 20): mean ± SEM, n = 8; for RTV (Day 20) / T/C (%) (Day 20) / T/Cweight / TGI (%) (Day 20) / Tumor volume (Day 20) / Tumor weight (Day 20): Day 20
Procedure: To evaluate the in vivo efficacy of the compound in the human colon cancer CO-04-0070 subcutaneous xenograft tumor BALB/c nude mouse model.
Each animal was inoculated with a CO-04-0070 FP7 tumor block with a volume of about 30 mm^3 in the right back position. When the mean tumor volume reached 151 mm^3, random grouping was used and the administration was started.
Tumor diameters were measured with vernier calipers twice a week. The calculation formula of tumor volume was: V=0.5a×b^2, wherein a and b represented the long and short diameters of the tumor, respectively.
The anti-tumor efficacy of the compounds was evaluated by TGI (%) or relative tumor proliferation rate T/C (%). Relative tumor proliferation rate T/C (%)=TRTV/CRTV×100% (TRTV: mean RTV of the treatment group; CRTV: mean RTV of the negative control group). The relative tumor volume (RTV) was calculated according to the results of tumor measurement, and the calculation formula was RTV=Vt/V0, wherein V0 was the tumor volume measured at the time of group administration (that is, D0), Vt was the tumor volume at a certain measurement, and the data of TRTV and CRTV were taken on the same day. TGI (%), reflecting the tumor growth inhibition rate.
TGI (%)=[1−(mean tumor volume at the end of administration in a treatment group−mean tumor volume at the beginning of administration in the treatment group)/(mean tumor volume at the end of treatment in vehicle control group−mean tumor volume at the beginning of treatment in vehicle control group)]×100%.
After the experiment, the tumor weight would be detected, and the percentage of T/Cweight would be calculated. Tweight and Cweight represented the tumor weight of the administration group and the vehicle control group, respectively.

- pIC50 (MIA-PA-CA-2 cells): 8.10
Compound: C=CC(=O)N1CCN2c3c(c(=O)n(-c4c(C)ccnc4C(C)C)c4c(=O)n(-c5c(N)c(Cl)cc(Cl)c5F)c(C(F)(F)F)cc34)OCC[C@H]2C1 [Compound 1D]
- Tumor volume (Day 0) ([1]; 3 mg/kg PO QD × 3 weeks): 151 mm^3
- RTV (Day 20) ([1]; 3 mg/kg PO QD × 3 weeks): 5.32
- T/C (%) (Day 20) ([1]; 3 mg/kg PO QD × 3 weeks): 58.0%
- T/Cweight ([1]; 3 mg/kg PO QD × 3 weeks): 61.6%
- TGI (%) (Day 20) ([1]; 3 mg/kg PO QD × 3 weeks): 45.4%
- Tumor volume (Day 20) ([1]; 3 mg/kg PO QD × 3 weeks): 788 mm^3
- Tumor weight (Day 20) ([1]; 3 mg/kg PO QD × 3 weeks): 0.832 ± 0.102 g
- Tumor volume (Day 0) ([1]; 10 mg/kg PO QD × 3 weeks): 151 mm^3
- RTV (Day 20) ([1]; 10 mg/kg PO QD × 3 weeks): 2.43
- T/C (%) (Day 20) ([1]; 10 mg/kg PO QD × 3 weeks): 26.5%
- T/Cweight ([1]; 10 mg/kg PO QD × 3 weeks): 30.1%
- TGI (%) (Day 20) ([1]; 10 mg/kg PO QD × 3 weeks): 80.5%
- Tumor volume (Day 20) ([1]; 10 mg/kg PO QD × 3 weeks): 379 mm^3
- Tumor weight (Day 20) ([1]; 10 mg/kg PO QD × 3 weeks): 0.406 ± 0.095 g
- Tumor volume (Day 0) ([1]; 30 mg/kg PO QD × 3 weeks): 151 mm^3
- RTV (Day 20) ([1]; 30 mg/kg PO QD × 3 weeks): 1.02
- T/C (%) (Day 20) ([1]; 30 mg/kg PO QD × 3 weeks): 11.1%
- T/Cweight ([1]; 30 mg/kg PO QD × 3 weeks): 12.0%
- TGI (%) (Day 20) ([1]; 30 mg/kg PO QD × 3 weeks): 99.9%
- Tumor volume (Day 20) ([1]; 30 mg/kg PO QD × 3 weeks): 152 mm^3
- Tumor weight (Day 20) ([1]; 30 mg/kg PO QD × 3 weeks): 0.162 ± 0.023 g
